Experimental data taken from patent publication US20250145665A1, “MACROCYCLIC PEPTIDES USEFUL AS MODULATORS OF TNF ALPHA” (Bristol-Myers Squibb Company, priority 2023, published 2025).
Starred links: 1 amine or outer side, 2 acyl side, 3 side chain; linkers in the order of their positions; H or OH if unused. Positions of bridges follow the written chain, without caps; N, C: chain ends. Non-standard residues stand in square brackets, D forms with d. Residues, ends and D or L forms follow the SMILES beside them. *: point of attachment. Bip(4'-(3-HOOC-benzamido)) = N[C@@H](Cc1ccc(-c2ccc(NC(=O)c3cccc(C(=O)O)c3)cc2)cc1)C(=O)O; Bip(4'-NH) = O=C([C@H](Cc1ccc(-c2ccc(N[*:3])cc2)cc1)N[*:1])[*:2]; X14 = O=C([C@H](Cc1ccc(-c2cccc(C(=O)[*:3])c2)cc1)N[*:1])[*:2]; Bip(4'-NHAc) = CC(=O)Nc1ccc(-c2ccc(C[C@H](N)C(=O)O)cc2)cc1; Ala(morpholin-4-yl) = N[C@@H](CN1CCOCC1)C(=O)O; Benzoyl(3-OCH2COOH) = O=C(O)COc1cccc(C(=O)*)c1; Benzoyl(4-Ph) = O=C(c1ccc(-c2ccccc2)cc1)*; Bip = N[C@@H](Cc1ccc(-c2ccccc2)cc1)C(=O)O; X15 = O=C(O)c1cccc(Oc2ccccc2N*)c1; Cya = N[C@@H](CS(=O)(=O)O)C(=O)O; Cha = N[C@@H](CC1CCCCC1)C(=O)O; Chg = N[C@H](C(=O)O)C1CCCCC1; Sar = CNCC(=O)O

Molecular target: TNFα (Homo sapiens, UniProt P01375)
Test: TNF-Induced HEK-Blue Assay
Type: cell-based
Conditions: HEK-Blue-CD40L cells, NF-kB-driven secreted alkaline phosphatase reporter; TNFα 0.5 ng/ml; 18 h; read-out: TNF induced HEK-Blue assay IC50 value

TNFα, sequence (P01375 77-233 limits assumed): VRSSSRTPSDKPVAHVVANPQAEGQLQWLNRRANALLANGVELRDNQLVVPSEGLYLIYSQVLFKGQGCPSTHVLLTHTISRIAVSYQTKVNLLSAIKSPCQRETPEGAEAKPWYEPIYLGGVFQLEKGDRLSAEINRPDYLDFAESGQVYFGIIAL

Structure (SMILES)	IC50 [nM]
CC[C@H](C)[C@@H]1NC(=O)[C@@H](CCCNC(=N)N)NC(=O)[C@H](CC(=O)O)NC(=O)[C@H](Cc2cnc[nH]2)NC(=O)CN(C)C(=O)[C@H](Cc2ccc(-c3ccc(NC(=O)c4cccc(C(=O)O)c4)cc3)cc2)NC(=O)[C@H](Cc2ccc(-c3ccccc3)cc2)NC(=O)[C@H](CC2CCCCC2)NC(=O)CSC[C@@H](C(=O)NCC(N)=O)NC(=O)[C@H](CC(C)C)NC(=O)[C@H](Cc2cnc[nH]2)NC(=O)[C@H](C(C)C)NC(=O)[C@@H]2CCCN2C1=O [Example 305] ({CH2CO}-[Cha][Bip][Bip(4'-(3-HOOC-benzamido))][Sar]HD[dR]IPVHLCG-NH2; thioether N-13)	< 50
CC(C)C[C@@H]1NC(=O)[C@H](CCCNC(=N)N)NC(=O)[C@H](C(C)C)NC(=O)[C@@H]2CCCN2C(=O)[C@H](C(C)C)NC(=O)[C@@H](CCCNC(=N)N)NC(=O)[C@H](CC(=O)O)NC(=O)[C@@H]2CCCN2C(=O)CN(C)C(=O)[C@H](Cc2ccc(-c3cccc(C(=O)Nc4ccccc4Oc4cccc(C(=O)O)c4)c3)cc2)NC(=O)[C@H](Cc2ccc(-c3ccccc3)cc2)NC(=O)[C@H](CN2CCOCC2)NC(=O)CSC[C@@H](C(=O)NCC(N)=O)NC1=O [Example 306] ({CH2CO}-[Ala(morpholin-4-yl)][Bip][X14](X15)[Sar]PD[dR]VPVRLCG-NH2; thioether N-13)	50 to 200
CC[C@H](C)[C@@H]1NC(=O)[C@@H](CCCNC(=N)N)NC(=O)[C@H](CC(=O)O)NC(=O)[C@H](Cc2cnc[nH]2)NC(=O)CN(C)C(=O)[C@H](Cc2ccc(-c3ccc(NC(=O)c4ccc(-c5ccccc5)cc4)cc3)cc2)NC(=O)[C@H](Cc2ccc(-c3ccccc3)cc2)NC(=O)[C@H](CC2CCCCC2)NC(=O)CSC[C@@H](C(=O)NCC(N)=O)NC(=O)[C@H](CC(C)C)NC(=O)[C@H](Cc2cnc[nH]2)NC(=O)[C@H](C(C)C)NC(=O)[C@@H]2CCCN2C1=O [Example 307] ({CH2CO}-[Cha][Bip][Bip(4'-NH)](Benzoyl(4-Ph))[Sar]HD[dR]IPVHLCG-NH2; thioether N-13)	50 to 200
CC[C@H](C)[C@@H]1NC(=O)[C@@H](CCCNC(=N)N)NC(=O)[C@H](CC(=O)O)NC(=O)[C@H](Cc2cnc[nH]2)NC(=O)CN(C)C(=O)[C@H](Cc2ccc(-c3ccc(NC(=O)c4cccc(OCC(=O)O)c4)cc3)cc2)NC(=O)[C@H](Cc2ccc(-c3ccccc3)cc2)NC(=O)[C@H](CC2CCCCC2)NC(=O)CSC[C@@H](C(=O)NCC(N)=O)NC(=O)[C@H](CC(C)C)NC(=O)[C@H](Cc2cnc[nH]2)NC(=O)[C@H](C(C)C)NC(=O)[C@@H]2CCCN2C1=O [Example 308] ({CH2CO}-[Cha][Bip][Bip(4'-NH)](Benzoyl(3-OCH2COOH))[Sar]HD[dR]IPVHLCG-NH2; thioether N-13)	< 50
CC(=O)Nc1ccc(-c2ccc(C[C@@H]3NC(=O)[C@H](Cc4ccc(-c5ccccc5)cc4)NC(=O)[C@H](CC4CCCCC4)NC(=O)CSC[C@@H](C(=O)NCC(N)=O)NC(=O)[C@H](CC(C)C)NC(=O)[C@H](Cc4ccc(O)cc4)NC(=O)[C@H](C(C)C)NC(=O)[C@@H]4CCCN4C(=O)[C@H](C(C)C)NC(=O)[C@@H](CCCNC(=N)N)NC(=O)[C@H](CS(=O)(=O)O)NC(=O)[C@@H]4CCCN4C(=O)CN(C)C3=O)cc2)cc1 [Example 309] ({CH2CO}-[Cha][Bip][Bip(4'-NHAc)][Sar]P[Cya][dR]VPVYLCG-NH2; thioether N-13)	50 to 200
CC(=O)Nc1ccc(-c2ccc(C[C@@H]3NC(=O)[C@H](Cc4ccc(-c5ccccc5)cc4)NC(=O)[C@H](CC4CCCCC4)NC(=O)CSC[C@@H](C(=O)NCC(N)=O)NC(=O)[C@H](CC(C)C)NC(=O)[C@H](Cc4ccc(O)cc4)NC(=O)[C@H](C4CCCCC4)NC(=O)[C@@H]4CCCN4C(=O)[C@H](C(C)C)NC(=O)[C@@H](CCCNC(=N)N)NC(=O)[C@H](CC(=O)O)NC(=O)[C@@H]4CCCN4C(=O)CN(C)C3=O)cc2)cc1 [Example 310] ({CH2CO}-[Cha][Bip][Bip(4'-NHAc)][Sar]PD[dR]VP[Chg]YLCG-NH2; thioether N-13)	50 to 200
